Tests used:
[1] = tested on: winter wheat; test: Test E winter wheat; assay type: in vivo, Triticum aestivum; conditions: Preemergence
[2] = tested on: rice; test: Test B flood test rice; assay type: in vivo, Oryza sativa
Summary of the method: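 Read-out is a visual response score from 0 (no effect) to 10 (complete control), assigned by comparison with untreated controls. Treatment was applied at the 2-leaf stage, and plants stayed in the greenhouse for twelve to sixteen days before scoring.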

[3] = tested on: Italian ryegrass; test: Test E Italian ryegrass; assay type: in vivo, Lolium multiflorum; conditions: Preemergence
[4] = tested on: wild oat; test: Test B pre/postemergence wild oat; assay type: in vivo, Avena fatua
Summary of the method: (§1)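 Test chemicals in a non-phytotoxic solvent mixture with surfactant were sprayed preemergence onto planted seeds and postemergence onto plants 2 to 18 cm tall (1- to 4-leaf stage). After twelve to sixteen days in a greenhouse, injury was visually rated against untreated controls from 0 (no effect) to 10 (complete control).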

[5] = tested on: winter barley; test: Test E winter barley; assay type: in vivo, Hordeum vulgare; conditions: Preemergence
[6] = tested on: wild oat; test: Test E wild oat; assay type: in vivo, Avena fatua; conditions: Preemergence
[7] = tested on: blackgrass; test: Test E blackgrass; assay type: in vivo, Alopecurus myosuroides; conditions: Preemergence
[8] = tested on: green foxtail; test: Test E green foxtail; assay type: in vivo, Setaria viridis; conditions: Preemergence
[9] = tested on: crabgrass; test: Test B pre/postemergence crabgrass; assay type: in vivo, Digitaria sanguinalis
Summary of the method: as §1

[10] = tested on: winter wheat; test: Test E winter wheat; assay type: in vivo, Triticum aestivum; conditions: Postemergence, 0 to 100 scale
Summary of the method: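 Compound formulated with surfactant in a non-phytotoxic solvent (postemergence: young 1- to 4-leaf plants); held in greenhouse approx. 21–28 days; visual assessment against untreated plants.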

[11] = tested on: wheat; test: Test B pre/postemergence wheat; assay type: in vivo, Triticum aestivum
Summary of the method: as §1

[12] = Rate 62 g/ha, 0 to 100 scale, 0 no effect, 100 complete control
[13] = Rate 125 g/ha, 0 to 100 scale (0 no effect, 100 complete control)
[14] = Rate 62 g/ha, headed Pre-emergence (flood test species), scale 0 to 10 (0 no effect, 10 complete control)
[15] = Rate 125 g/ha, Pre-emergence, flood test species, scale 0 to 10 where 0 is no effect and 10 is complete control
[16] = Rate 250 g/ha, Pre-emergence, flood-test species, scale 0 to 10, 0 is no effect, 10 is complete control
[17] = Preemergence, Rate 62 g/ha, scale of 0 to 10 where 0 is no effect and 10 is complete control
[18] = Preemergence, Rate 250 g/ha, scale of 0 to 10 where 0 is no effect and 10 is complete control
[19] = Preemergence, Rate 500 g/ha, scale of 0 to 10 where 0 is no effect and 10 is complete control
[20] = Rate 62 g/ha, Postemergence, scale 0 to 10 (0 no effect, 10 complete control)
[21] = Rate 125 g/ha, Postemergence, scale of 0 to 10 where 0 is no effect and 10 is complete control
[22] = Rate 250 g/ha, Postemergence, scale of 0 to 10 where 0 is no effect and 10 is complete control
[23] = Rate 500 g/ha, 0 to 100 scale where 0 is no effect and 100 is complete control
[24] = Preemergence, Rate 250 g/ha, scale 0 to 10, 0 is no effect, 10 is complete control
[25] = Preemergence, Rate 500 g/ha, scale 0 to 10 (0 no effect, 10 complete control)
[26] = Rate 62 g/ha, Postemergence, scale of 0 to 10 where 0 is no effect and 10 is complete control
[27] = Rate 125 g/ha, Postemergence, scale 0 to 10

For CC(C)N(C(=O)n1oc(=O)n(C2CCOCC2)c1=O)c1ccc(F)cc1 [Compound 310], the “Plant response rating, Wheat (winter)” value [1, 12] was 60, the “Plant response rating, Wheat (winter)” value [1, 13] was 40 and the “Plant response rating, Wheat (winter)” value ([1]; Rate 250 g/ha, 0 to 100 scale) was 70. The “Rice plant response rating” value ([2]; Pre-emergence, Rate 1000 g/ha, scale 0 to 10 (0 no effect, 10 complete control)) was 0, the “Rice plant response rating” value [2, 14] was 0 and the “Rice plant response rating” value [2, 15] was 0. For the same compound, the “Rice plant response rating” value [2, 16] was 0, the “Rice plant response rating” value ([2]; Rate 500 g/ha, Pre-emergence, flood test species, scale 0 to 10 (0 no effect, 10 complete control)) was 0 and the “Plant response rating, I. Ryegrass” value [3, 12] was 70. The “Plant response rating, I. Ryegrass” value [3, 13] was 70, the “Plant response rating, I. Ryegrass” value ([3]; Rate 250 g/ha, 0 to 100 scale) was 70 and the “Wild oats plant response rating” value [4, 17] was 8. For the same compound, the “Wild oats plant response rating (0 to 10 scale)” value ([4]; Preemergence, Rate 125 g/ha) was 9, the “Wild oats plant response rating” value [4, 18] was 9 and the “Wild oats plant response rating” value [4, 19] was 9. For the same compound, the “Wild oats plant response rating” value [4, 20] was 3, the “Wild oats plant response rating” value [4, 21] was 3 and the “Plant response rating, Wild oats” value [4, 22] was 3. For the same compound, the “Plant response rating, Barley (winter)” value [5, 12] was 50, the “Plant response rating, Barley (winter)” value [5, 13] was 60 and the “Plant response rating, Barley (winter)” value ([5]; Rate 250 g/ha, 0 to 100 scale, 0 no effect, 100 complete control) was 70. The “Plant response rating, Wild oat” value [6, 12] was 70, the “Plant response rating, Wild oat” value [6, 13] was 50 and the “Plant response rating, Wild oat” value ([6]; Rate 250 g/ha, 0 to 100 scale) was 70. For the same compound, the “Plant response rating, Blackgrass” value [7, 12] was 85, the “Plant response rating, Blackgrass” value [7, 13] was 85 and the “Plant response rating, Blackgrass” value ([7]; Rate 250 g/ha, 0 to 100 scale) was 85. For the same compound, the “Plant response rating, Green foxtail” value [8, 12] was 100, the “Plant response rating, Green foxtail” value [8, 13] was 100 and the “Plant response rating, Green foxtail” value ([8]; Rate 250 g/ha, 0 to 100 scale) was 100. For the same compound, the “Crabgrass plant response rating” value [9, 17] was 5, the “Crabgrass plant response rating (0 to 10 scale)” value ([9]; Preemergence, Rate 125 g/ha) was 5 and the “Crabgrass plant response rating” value [9, 18] was 7. The “Crabgrass plant response rating” value [9, 19] was 7, the “Crabgrass plant response rating” value [9, 20] was 8 and the “Crabgrass plant response rating” value [9, 21] was 9. The “Plant response rating, Crabgrass” value [9, 22] was 9, the “Plant response rating, Wheat (winter)” value ([10]; Rate 62 g/ha) was 75 and the “Plant response rating, Wheat (winter)” value ([10]; Rate 125 g/ha, 0 is no effect, 100 is complete control) was 80. The “Plant response rating, Wheat (winter)” value ([10]; Rate 250 g/ha, 0 is no effect, 100 is complete control) was 80, the “Wheat plant response rating” value [11, 17] was 2 and the “Wheat plant response rating (0 to 10 scale)” value ([11]; Preemergence, Rate 125 g/ha) was 2. The “Wheat plant response rating” value [11, 18] was 5, the “Wheat plant response rating” value [11, 19] was 7 and the “Wheat plant response rating” value [11, 20] was 4. For the same compound, the “Wheat plant response rating” value [11, 21] was 4 and the “Plant response rating, Wheat” value [11, 22] was 6.

With Cc1nc(C)c(Cn2c(=O)on(C(=O)N(c3ccc(F)cc3)C(C)C)c2=O)s1 [Compound 192] the “Plant response rating, Wheat (winter)” value [1, 13] was 10, the “Plant response rating, Wheat (winter)” value [1, 23] was 40 and the “Rice plant response rating” value [2, 14] was 0. The “Rice plant response rating” value [2, 15] was 0, the “Rice plant response rating” value [2, 16] was 0 and the “Plant response rating, Rice” value ([2]; Rate 500 g/ha, headed Pre-emergence (flood test species), scale 0 to 10 (0 no effect, 10 complete control)) was 0. The “Plant response rating, I. Ryegrass” value [3, 13] was 20, the “Plant response rating, I. Ryegrass” value [3, 23] was 60 and the “Wild oats plant response rating” value [4, 17] was 0. For the same compound, the “Wild oats plant response rating” value [4, 24] was 5, the “Wild oats plant response rating” value [4, 25] was 7 and the “Wild oats plant response rating” value [4, 26] was 0. The “Wild oats plant response rating” value [4, 27] was 0, the “Plant response rating (0 to 10; 0 is no effect, 10 is complete control), Wild oats” value ([4]; Rate 250 g/ha, Postemergence) was 0 and the “Plant response rating, Barley (winter)” value [5, 13] was 20. For the same compound, the “Plant response rating, Barley (winter)” value [5, 23] was 30, the “Plant response rating, Wild oat” value [6, 13] was 30 and the “Plant response rating, Wild oat” value [6, 23] was 55. The “Plant response rating, Blackgrass” value [7, 13] was 40, the “Plant response rating, Blackgrass” value [7, 23] was 50 and the “Plant response rating, Green foxtail” value [8, 13] was 50. The “Plant response rating, Green foxtail” value [8, 23] was 65, the “Crabgrass plant response rating” value [9, 17] was 2 and the “Crabgrass plant response rating (0 to 10 scale)” value ([9]; Preemergence, Rate 125 g/ha, 0 is no effect, 10 is complete control) was 6. The “Crabgrass plant response rating” value [9, 24] was 7, the “Crabgrass plant response rating” value [9, 25] was 9 and the “Crabgrass plant response rating” value [9, 26] was 1. The “Crabgrass plant response rating” value [9, 27] was 1, the “Plant response rating (0 to 10; 0 is no effect, 10 is complete control), Crabgrass” value ([9]; Rate 250 g/ha, Postemergence) was 1 and the “Crabgrass plant response rating” value ([9]; Rate 500 g/ha, Postemergence, scale 0 to 10) was 2. The “Plant response rating, Wheat (winter)” value ([10]; Rate 125 g/ha) was 30, the “Plant response rating, Wheat (winter)” value ([10]; Rate 500 g/ha, 0 is no effect, 100 is complete control) was 50 and the “Wheat plant response rating” value [11, 17] was 0. The “Wheat plant response rating” value [11, 24] was 0, the “Wheat plant response rating” value [11, 25] was 0 and the “Wheat plant response rating” value [11, 26] was 0. The “Wheat plant response rating” value [11, 27] was 0 and the “Plant response rating (0 to 10; 0 is no effect, 10 is complete control), Wheat” value ([11]; Rate 250 g/ha, Postemergence) was 0.

Reference: patent US6737383B1, “Herbicidal oxadiazolidines” (priority 1999, dated 2004)
